Source: PubChem BioAssay (NCI)
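96-well plates; 48 h exposure; 5 concentrations. Endpoints by linear interpolation between flanking doses. Not reached: highest tested concentration assigned. The concentration for full growth arrest is given as TGI.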

Experiments:
Test in all cases: DTP human tumour cell line panel, 48 h
[1] = tested on: KM20L2 colon
[2] = tested on: SR leukemia
[3] = tested on: TK-10 renal
[4] = tested on: SK-MEL-5 melanoma
[5] = tested on: HOP-62 NSCLC
[6] = tested on: NCI-H226 lung
[7] = tested on: ACHN renal
[8] = tested on: RPMI-8226 leukemia
[9] = tested on: DLD-1 colon
[10] = tested on: SNB-75 CNS
[11] = tested on: HCC-2998 colon
[12] = tested on: NCI-H522 lung
[13] = tested on: HL-60(TB) leukemia
[14] = tested on: UO-31 renal
[15] = tested on: MALME-3M melanoma
[16] = tested on: LXFL 529 NSCLC
[17] = tested on: DMS 273 small cell lung
[18] = tested on: RXF-631 renal
[19] = tested on: NCI-H460 lung
[20] = tested on: A549 NSCLC
[21] = tested on: A498 renal
[22] = tested on: XF 498 CNS
[23] = tested on: M14 melanoma
[24] = tested on: OVCAR-4 ovarian
[25] = tested on: CAKI-1 renal
[26] = tested on: HT29 colon
[27] = tested on: SK-MEL-2 melanoma
[28] = tested on: SF-295 CNS
[29] = tested on: LOX IMVI melanoma
[30] = tested on: DMS 114 small cell lung
[31] = tested on: UACC-257 melanoma
[32] = tested on: EKVX NSCLC
[33] = tested on: 786-0 renal
[34] = tested on: K-562 leukemia
[35] = tested on: SK-OV-3 ovarian
[36] = tested on: CCRF-CEM leukemia
[37] = tested on: COLO 205 colon
[38] = tested on: SK-MEL-28 melanoma
[39] = tested on: M19-MEL melanoma
[40] = tested on: SF-539 CNS
[41] = tested on: UACC-62 melanoma
[42] = tested on: SN12C renal
[43] = tested on: IGROV1 ovarian
[44] = tested on: HOP-92 NSCLC
[45] = tested on: SNB-19 CNS
[46] = tested on: RXF 393 renal
[47] = tested on: SW-620 colon
[48] = tested on: U251 CNS
[49] = tested on: OVCAR-5 ovarian
[50] = tested on: OVCAR-3 ovarian
[51] = tested on: HCT-15 colon
[52] = tested on: OVCAR-8 ovarian
[53] = tested on: MOLT-4 leukemia
[54] = tested on: SNB-78 CNS
[55] = tested on: HCT-116 colon
[56] = tested on: NCI-H23 lung
[57] = tested on: KM12 colon
[58] = tested on: HOP-18 NSCLC
[59] = tested on: SF-268 CNS

Measured: TGI

CN(C)CCCN1CCc2c([nH]c3ccccc23)C1c1cccnc1 (stereo unspecified)
> 100 µM: [1] | [2] | [3] | [4] | [5] | [6] | [7] | [8] | [9] | [10] | [11] | [12] | [13] | [14] | [15] | [16] | [17] | [18] | [19] | [20] | [21] | [22] | [23] | [24] | [25] | [26] | [27] | [28] | [29] | [30] | [31] | [32] | [33] | [34] | [35] | [36] | [37] | [38] | [39] | [40] | [41] | [42] | [43] | [44] | [45] | [46] | [47] | [48] | [49] | [50] | [51] | [52] | [53] | [54] | [55] | [56] | [57]

Cc1nc2ccccc2c(=O)[nH]1
> 100 µM: [1] | [3] | [4] | [5] | [6] | [7] | [8] | [9] | [10] | [11] | [12] | [13] | [14] | [15] | [16] | [18] | [19] | [20] | [21] | [22] | [23] | [24] | [26] | [27] | [28] | [29] | [31] | [32] | [33] | [58] | [34] | [35] | [36] | [37] | [38] | [39] | [40] | [41] | [42] | [43] | [44] | [45] | [46] | [47] | [48] | [49] | [59] | [50] | [51] | [52] | [53] | [54] | [55] | [56] | [57]

CSc1nc2c(nc(N)n2C2OCC(O)C(O)C2O)c(=O)n1C (stereo unspecified)
> 100 µM: [1] | [2] | [3] | [4] | [5] | [6] | [7] | [9] | [10] | [11] | [12] | [13] | [14] | [15] | [16] | [18] | [19] | [20] | [21] | [22] | [23] | [24] | [25] | [26] | [28] | [29] | [30] | [31] | [32] | [33] | [58] | [34] | [35] | [36] | [37] | [38] | [39] | [40] | [41] | [42] | [43] | [44] | [45] | [46] | [47] | [48] | [59] | [50] | [52] | [53] | [54] | [55] | [56] | [57]
